Data reported in patent US12559494B2, “Functionalized lactams as modulators of the 5-hydroxytryptamine receptor 7 and their method of use” (Temple University - Of The Commonwealth System of Higher …, priority 2018, dated 2026).
Counter-ions that a name gives are not always drawn.

target: T1, 5HT7 receptors (Homo sapiens, UniProt P34969); assay: Radiolabeled binding (IC50 and Ki), [3H]LSD competition on membranes of cells expressing recombinant 5HT7 receptors; set-up: expressed in transfected cells; conditions: Table 35, scaffold drawing 615
Procedure: Radiolabel Binding Studies for Serotonin 5HT7 Receptors, Method 1:
(§1) A solution of the compound of the disclosure to be tested is prepared as a 1-mg/ml stock in Assay Buffer or DMSO according to its solubility. A similar stock of the reference compound chlorpromazine is also prepared as a positive control. Eleven dilutions (5×assay concentration) of the compound of the disclosure and chlorpromazine are prepared in the Assay Buffer by serial dilution to yield final corresponding assay concentrations ranging from 10 pM to 10 μM.
A stock concentration of 5 nM [^3H]LSD (lysergic acid diethyl amide) is prepared in 50 mM Tris-HCl, 10 mM MgCl2, 1 mM EDTA, pH 7.4 (Assay Buffer). Aliquots (50 μl) of radioligand are dispensed into the wells of a 96-well plate containing 100 μl of Assay Buffer. Duplicate 50-μl aliquots of the compound of the disclosure test and chlorpromazine positive control reference compound serial dilutions are added.
Membrane fractions of cells expressing recombinant 5HT7 receptors (50 μL) are dispensed into each well. The membranes are prepared from stably transfected cell lines expressing 5HT7 receptors cultured on 10-cm plates by harvesting PBS-rinsed monolayers, resuspending and lysing in chilled, hypotonic 50 mM Tris-HCl, pH 7.4, centrifuging at 20,000×g, decanting the supernatant and storing at −80° C.; the membrane preparations are resuspended in 3 ml of chilled Assay Buffer and homogenized by several passages through a 26 gauge needle before using in the assay.
The 250-μl reactions are incubated at room temperature for 1.5 hours, then harvested by rapid filtration onto 0.3% polyethyleneimine-treated, 96-well filter mats using a 96-well Filtermate harvester. Four rapid 500-μl washes are performed with chilled Assay Buffer to reduce non-specific binding. The filter mats are dried, then scintillant is added to the filters and the radioactivity retained on the filters is counted in a Microbeta scintillation counter.
Raw data (dpm) representing total radioligand binding (i.e., specific+non-specific binding) are plotted as a function of the logarithm of the molar concentration of the competitor (i.e., test or reference compound). Non-linear regression of the normalized (i.e., percent radioligand binding compared to that observed in the absence of test or reference compound) raw data is performed in Prism 4.0 (GraphPad Software) using the built-in three parameter logistic model describing ligand competition binding to radioligand-labeled sites: y=bottom+[(top-bottom)/(1+10×−logIC50)] where bottom equals the residual radioligand binding measured in the presence of 10 μM reference compound (i.e., non-specific binding) and top equals the total radioligand binding observed in the absence of competitor. The log IC50 (i.e., the log of the ligand concentration that reduces radioligand binding by 50%) is thus estimated from the data and used to obtain the Ki by applying the Cheng-Prusoff approximation: Ki=IC50/(1+[ligand]/KD) • where [ligand] equals the assay radioligand concentration and KD equals the affinity constant of the radioligand for the target receptor.
^1Radiolabeled Binding (IC50 and K1)
as §1, with “tested was” for “tested is”, “chlorpromazine was” for “chlorpromazine is”, “dilutions (5× assay” for “dilutions (5×assay”, “chlorpromazine were” for “chlorpromazine are”, “[…]” for “10 pM”
A stock concentration of 5 nM [^3H]LSD (lysergic acid diethyl amide) was prepared in 50 mM Tris-HCl, 10 mM MgCl2, 1 mM EDTA, pH 7.4 (Assay Buffer). Aliquots (50 μl) of radioligand were dispensed into the wells of a 96-well plate containing 100 μl of Assay Buffer. […]

T1 sequence (P34969 whole entry): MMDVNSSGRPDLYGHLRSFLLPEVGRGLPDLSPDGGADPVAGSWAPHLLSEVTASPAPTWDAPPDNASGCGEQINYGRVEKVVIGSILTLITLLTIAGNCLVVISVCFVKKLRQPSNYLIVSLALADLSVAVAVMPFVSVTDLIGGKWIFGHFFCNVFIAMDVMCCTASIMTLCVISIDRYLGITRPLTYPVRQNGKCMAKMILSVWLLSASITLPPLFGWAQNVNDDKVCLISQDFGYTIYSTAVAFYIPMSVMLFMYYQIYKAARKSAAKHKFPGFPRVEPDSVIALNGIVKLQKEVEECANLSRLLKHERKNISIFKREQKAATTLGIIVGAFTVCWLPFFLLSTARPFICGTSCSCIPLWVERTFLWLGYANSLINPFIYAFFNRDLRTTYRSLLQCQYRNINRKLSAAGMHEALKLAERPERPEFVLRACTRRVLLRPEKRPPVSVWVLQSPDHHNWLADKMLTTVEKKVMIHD

SMILES	Ki
CCC1(CC)C[C@H](CN2CCN(c3cccc(Cl)c3)CC2)NC1=O [(R)-5-((4-(3-chlorophenyl)piperazin-1-yl)methyl)-3,3-diethylpyrrolidin-2-one]	1090 nM
CCC1(CC)C[C@H](CN2CCN(c3ccc(C)cc3)CC2)NC1=O [(R)-3,3-diethyl-5-((4-(p-tolyl)piperazin-1-yl)methyl)pyrrolidin-2-one formate]	249 nM
CCC1(CC)C[C@H](CN2CCN(c3ccc(F)cc3)CC2)NC1=O [(R)-3,3-diethyl-5-((4-(4-fluorophenyl)piperazin-1-yl)methyl)pyrrolidin-2-one formate]	243 nM
CCC1(CC)C[C@H](CN2CCN(c3ccccc3C(C)C)CC2)NC1=O [(R)-3,3-diethyl-5-((4-(2-isopropylphenyl)piperazin-1-yl)methyl)pyrrolidin-2-one formate]	121 nM
CCC1(CC)C[C@H](CN2CCN(c3ccccn3)CC2)NC1=O [(R)-3,3-diethyl-5-((4-(pyridin-2-yl)piperazin-1-yl)methyl)pyrrolidin-2-one formate]	669 nM
CCC1(CC)C[C@H](CN2CCN(c3ccccc3)CC2)NC1=O [drawing 615 n=1 R1=Ethyl R2=Ethyl R3=Phenyl, (R)-3,3-diethyl-5-((4-phenylpiperazin-1-yl)methyl)pyrrolidin-2-one formate]	819 nM

same assay, conditions: Table 37, scaffold drawing 617

SMILES	Ki
CC(=O)N1CCC2(CC1)C[C@H](CCN1CCN(c3ccc(F)cc3)CC1)NC2=O [drawing 617 n=2 R3=4-F-Phenyl R7=Acetyl, (R)-8-acetyl-3-(2-(4-(4-fluorophenyl)piperazin-1-yl)ethyl)-2,8-diazaspiro[4.5]decan-1-one]	76 nM

same assay, conditions: [3H]LSD radioligand, membranes of cells expressing recombinant 5HT7 receptors; read-out: IC50 (nM)^1

SMILES	IC50
CCC1(CC)CC(CCN2CCN(c3ccc(Cl)cc3)CC2)NC1=O (stereo not shown) [5-(2-(4-(4-chlorophenyl)piperazin-1-yl)ethyl)-3,3-diethylpyrrolidin-2-one]	13 nM
CCC1(CC)CC(CCN2CCN(c3ccccc3)CC2)NC1=O (stereo not shown) [3,3-diethyl-5-(2-(4-phenylpiperazin-1-yl)ethyl)pyrrolidin-2-one]	68 nM
CCC1(CC)CC(CCN2CCN(c3ccccc3C(C)C)CC2)NC1=O (stereo not shown) [3,3-diethyl-5-(2-(4-(2-isopropylphenyl)piperazin-1-yl)ethyl)pyrrolidin-2-one]	23 nM

target: T1, 5HT7 receptors; assay: Functional data (Kb), HitHunter cAMP enzyme fragment complementation assay with 5-HT as agonist; assay type: cell-based; set-up: expressed in transfected cells; G418 selection); conditions: Table 35, scaffold drawing 615; antagonist mode vs 5-HT; read-out: Kb
Procedure: Functional efficacy of the compounds of the disclosure on 5-HT7 serotonin receptors were measured in a cell based cAMP enzyme fragment complementation assay using the HitHunter cAMP assay (DiscoveRx). Cells stably expressing human 5HT7 receptors were plated in 96-well plates at 4000 cells/well, 16-20 hours prior to assay in growth media (Ultraculture medium, 2 mM GlutaMax and G418 1 mg/mL. Serial dilutions of the agonist, 5-hydroxytryptamine (5-HT), were prepared in a final concentration range of 10 μM to 10 nM. Compounds of the disclosure were prepared in 3-fold serial dilutions to obtain a final concentration range of 10 μM to 0.1 nM. Compounds of the disclosure are tested for agonist activity in the absence of 5-HT and antagonist activity in the presence of 5-HT. For the cAMP assay, the protocol was followed according to the instructions provided by the supplier. Briefly, cells were incubated with a compound of the disclosure for 30 minutes at 37° C. prior to addition of EC70 concentration of 5-HT. After an additional 30 minutes, cAMP antibody/cell lysis solution was added (20 μL/well) and incubated for 60 minutes at room temperature. cAMP XS+EA reagent is added (20 μL/well) and incubated for 2 hours at room temperature. Luminescence was read on the Envision Multilabel plate reader.

SMILES	Kb
CCC1(CC)C[C@H](CCN2CCN(c3ccccc3C)CC2)NC1=O [(R)-5-(2-(4-(2-methylphenyl)piperazin-1-yl)ethyl)-3,3-diethylpyrrolidin-2-one]	127 nM
CCC1(CC)C[C@H](CCN2CCN(c3ccccc3OC)CC2)NC1=O [(R)-3,3-diethyl-5-(2-(4-(2-methoxyphenyl)piperazin-1-yl)ethyl)pyrrolidin-2-one]	230 nM
CCC1(CC)C[C@H](CCN2CCN(c3ccccc3)CC2)NC1=O [drawing 615 n=2 R1=Ethyl R2=Ethyl R3=Phenyl, (R)-3,3-diethyl-5-(2-(4-phenylpiperazin-1-yl)ethyl)pyrrolidin-2-one]	6.59 nM
CCC1(CC)C[C@H](CCN2CCN(c3ccc(C#N)cc3)CC2)NC1=O [(R)-4-(4-(2-(4,4-diethyl-5-oxopyrrolidin-2-yl)ethyl)piperazin-1-yl)benzonitrile]	544 nM
CCC1(CC)C[C@H](CCN2CCN(c3ccc(C(F)(F)F)cc3)CC2)NC1=O [(R)-3,3-diethyl-5-(2-(4-(4-(trifluoromethyl)phenyl)piperazin-1-yl)ethyl)pyrrolidin-2-one]	137 nM
CCC1(CC)C[C@H](CCN2CCN(c3cccc(F)c3)CC2)NC1=O [(R)-5-(2-(4-(3-fluorophenyl)piperazin-1-yl)ethyl)-3,3-diethylpyrrolidin-2-one]	9.89 nM
CCC1(CC)C[C@H](CCN2CCN(c3ccccc3Cl)CC2)NC1=O [(R)-5-(2-(4-(2-chlorophenyl)piperazin-1-yl)ethyl)-3,3-diethylpyrrolidin-2-one]	109 nM
CCC1(CC)C[C@H](CCN2CCN(c3cccc(C)c3)CC2)NC1=O [(R)-5-(2-(4-(3-methylphenyl)piperazin-1-yl)ethyl)-3,3-diethylpyrrolidin-2-one]	1.65 nM
CCC1(CC)C[C@H](CCN2CCN(c3ccccn3)CC2)NC1=O [(R)-3,3-diethyl-5-(2-(4-(pyridin-2-yl)piperazin-1-yl)ethyl)pyrrolidin-2-one]	4.91 nM

same assay, conditions: Table 36, scaffold drawing 616; antagonist mode vs 5-HT; read-out: Kb

SMILES	Kb
O=C1N[C@H](CCN2CCN(c3cccc(Cl)c3)CC2)CC12CCCC2 [(S)-3-(2-(4-(3-chlorophenyl)piperazin-1-yl)ethyl)-2-azaspiro[4.4]nonan-1-one]	48.4 nM
O=C1N[C@H](CCN2CCN(c3ccc(F)cc3)CC2)CC12CCCC2 [(S)-3-(2-(4-(4-fluorophenyl)piperazin-1-yl)ethyl)-2-azaspiro[4.4]nonan-1-one]	52.6 nM
O=C1N[C@H](CCN2CCN(c3ccc(F)cc3)CC2)CC12CC=CC2 [(S)-3-(2-(4-(4-fluorophenyl)piperazin-1-yl)ethyl)-2-azaspiro[4.4]non-7-en-1-one]	46.2 nM
O=C1N[C@H](CCN2CCN(c3cccc(Cl)c3)CC2)CC12CC=CC2 [(S)-3-(2-(4-(3-chlorophenyl)piperazin-1-yl)ethyl)-2-azaspiro[4.4]non-7-en-1-one]	36.3 nM

same assay, conditions: Table 37, scaffold drawing 617; antagonist mode vs 5-HT; read-out: Kb

SMILES	Kb
CC(=O)N1CCC2(CC1)C[C@H](CCN1CCN(c3ccc(F)cc3)CC1)NC2=O [drawing 617 n=2 R3=4-F-Phenyl R7=Acetyl, (R)-8-acetyl-3-(2-(4-(4-fluorophenyl)piperazin-1-yl)ethyl)-2,8-diazaspiro[4.5]decan-1-one]	14.4 nM
CS(=O)(=O)N1CCC2(CC1)C[C@H](CCCN1CCN(c3cccc(Cl)c3)CC1)NC2=O [drawing 617 n=3 R3=3-Cl-Phenyl R7=MeSO2, (S)-3-(3-(4-(3-chlorophenyl)piperazin-1-yl)propyl)-8-(methylsulfonyl)-2,8-diazaspiro[4.5]decan-1-one]	321 nM
CS(=O)(=O)N1CCC2(CC1)C[C@H](CCCN1CCN(c3ccc(F)cc3)CC1)NC2=O [drawing 617 n=3 R3=4-F-Phenyl R7=MeSO2, (S)-3-(3-(4-(4-fluorophenyl)piperazin-1-yl)propyl)-8-(methylsulfonyl)-2,8-diazaspiro[4.5]decan-1-one]	526 nM

same assay, conditions: Table 39, scaffold drawing 619; antagonist mode vs 5-HT; read-out: Kb

SMILES	Kb
CCC1(CC)C[C@H](CCN2CC3CN(c4ccccc4)CC3C2)NC1=O (stereo partly drawn) [drawing 619 n=2 R1=Ethyl R2=Ethyl R3=Phenyl, (5R)-3,3-diethyl-5-(2-(5-phenylhexahydropyrrolo[3,4-c]pyrrol-2(1H)-yl)ethyl)pyrrolidin-2-one]	144 nM

same assay, conditions: cAMP assay, cells stably expressing human 5HT7 receptors, antagonist activity in the presence of EC70 5-HT; read-out: Kb (nM)^2

SMILES	Kb
CCC1(CC)CC(CCN2CCN(c3ccc(Cl)cc3)CC2)NC1=O (stereo not shown) [5-(2-(4-(4-chlorophenyl)piperazin-1-yl)ethyl)-3,3-diethylpyrrolidin-2-one]	54.6 nM
CCC1(CC)CC(CCN2CCN(c3ccccc3)CC2)NC1=O (stereo not shown) [3,3-diethyl-5-(2-(4-phenylpiperazin-1-yl)ethyl)pyrrolidin-2-one]	17.8 nM
CCC1(CC)CC(CCN2CCN(c3ccccc3C(C)C)CC2)NC1=O (stereo not shown) [3,3-diethyl-5-(2-(4-(2-isopropylphenyl)piperazin-1-yl)ethyl)pyrrolidin-2-one]	163 nM
CS(=O)(=O)N1CCC2(CC1)C[C@@H](CCN1CCN(c3ccc(F)cc3)CC1)NC2=O [drawing 618; n=2; R3=4-F-Phenyl; R7=MeSO2, (S)-3-(2-(4-(4-fluorophenyl)piperazin-1-yl)ethyl)-8-(methylsulfonyl)-2,8-diazaspiro[4.5]decan-1-one]	74.2 nM
